Assay results reported in patent US10066272B2, “Human homeobox gene ventx and macrophage terminal differentiation and activation, compositions and methods thereof” (priority 2011, dated 2018).

Tests used:
Format in all cases: cell-based, human
[1] = system: cultured monocytes/macrophages; experiment: Phagocytosis assay with pHrodo S. aureus BioParticles
Method: (A) Left panel: Flow cytometry analysis of indicated surface markers in monocytes transfected with siGFP or siVentX, respectively; right panel: bar graphs show the mean+SD of at least three separate experiments. *p<0.05; **p<0.01. (B) Effects of VentX knockdown on macrophage viability. Monocytes were transfected with either siGFP or siVentX and subsequently exposed to 100 ng/mL M-CSF for 3 days. Cells were then harvested and stained with PI and Annexin V and analyzed by flow cytometry. (C) Effects of VentX knockdown on phagocytosis. Monocytes were transfected with siGFP or siVentX. Phagocytosis assays were carried out as described in materials and methods. […]
Macrophages were generated through incubation of freshly isolated monocytes with 100 ng/mL M-CSF for 4 days. […] (A) Surface staining of CD40, CD80, CD86 and HLA-DR and intracellular staining of TNF-α and IL1-β were analyzed by flow cytometry. (B) Secreted TNF-α, IL1-β and IL12p70 from culture supernatants were determined with ELISA kits. (C) Reactive oxygen species (ROS) from siGFP or siVentX transfected macrophages were analyzed with fluorescence microscope (left) and flow cytometry (middle). […]
Phagocytosis of cultured monocytes/macrophages or U937 cells were performed with pHrodo™ S. aureus BioParticles® conjugates from Invitrogen. […] After extensive washings, cellular phagocytosis of bioparticles was monitored by flow cytometry. […]

macrophages [2] = experiment: Macrophage classical activation after siRNA transfection, surface markers by flow cytometry; conditions: transfected macrophages
Method: (§1) Macrophages were generated through incubation of freshly isolated monocytes with 100 ng/mL M-CSF for 4 days. These macrophages were then transfected with siGFP or siVentX, respectively, and further cultured in RPMI 1640 medium for additional 3 days. Thereafter, cells were exposed to 1 μg/mL LPS plus 20 ng/mL γ-IFN for 6 hours. (A) Surface staining of CD40, CD80, CD86 and HLA-DR and intracellular staining of TNF-α and IL1-β were analyzed by flow cytometry. (B) Secreted TNF-α, IL1-β and IL12p70 from culture supernatants were determined with ELISA kits. (C) Reactive oxygen species (ROS) from siGFP or siVentX transfected macrophages were analyzed with fluorescence microscope (left) and flow cytometry (middle). […] (D) Nitrate level from siGFP and siVentX transfected macrophages. Data represent mean+SD of three different experiments. (E) Phagocytosis of siGFP and siVentX transfected macrophage. Red histogram represents transfection with siGFP; green histogram represents transfection with siVentX. Left panel: cells were incubated on ice; right panel: cells were incubated at 37° C. (F) Effects of VentX knockdown on mixed lymphocyte reaction. […]
(A) Effects VentX over-expression on the expression of LPS and IFN-γ pathways components. […] No significant binding of VentX to the promoter regions of STAT1 and JunB was detected by the ChIP assay. […]

macrophages [3] = experiment: Secreted pro-inflammatory cytokines from macrophage culture supernatants (ELISA); conditions: transfected macrophages, TNF-α, IL1-β and IL12p70 by ELISA (FIG. 8B)
Method: as §1
Levels of IL-1β and TNF-α and IL12p70 in the supernatants of E. coli LPS (Sigma) and IFN-γ (PeproTech) treated macrophage or LPS treated U937 cells were quantified using ELISA kits obtained from eBiosciences. […]

siVentX: VentX siRNA, forward 5′-UUCAGAAUCGCCGCAUGAAACACAAACGG-3′ (SEQ ID NO:4), reverse SEQ ID NO:5 (antisense CCGUUUGUGUUUCAUGCGGCGAUUCUGAA; listed as RNA, chemistry not given here)
phagocytotic capability of transfected macrophages ([1]; macrophages (FIG. 8E)): much weaker
phagocytotic activity of transfected monocytes ([1]; monocytes, in comparison with the control (FIG. 3C)): reduced phagocytotic activity
surface expression of CD40, CD80 and CD86 (macrophages [2]; LPS plus IFN-γ, HLA-DR not affected (FIG. 8A)): significantly down-regulated
surface expression of CD119 (IFN-γ receptor 1), CD14 and TLR4 (macrophages [2]; flow cytometry (FIG. 9C)): significantly diminished
pro-inflammatory cytokine secretion (macrophages [3]): significant reduction
